Values quoted from earlier work as cited in patent US11491230B2, “Medication” (priority 2015, dated 2022).

Experiments:
CB1 receptor = CB1 receptor (Homo sapiens, UniProt P21554)
[1] = not given; remark: listed apart in the source
[2] = biological target: T1, androgen receptor in the prostate gland (Homo sapiens, UniProt P10275)
T1 construct: host or cells: prostate gland
T1 sequence (P10275 1-920): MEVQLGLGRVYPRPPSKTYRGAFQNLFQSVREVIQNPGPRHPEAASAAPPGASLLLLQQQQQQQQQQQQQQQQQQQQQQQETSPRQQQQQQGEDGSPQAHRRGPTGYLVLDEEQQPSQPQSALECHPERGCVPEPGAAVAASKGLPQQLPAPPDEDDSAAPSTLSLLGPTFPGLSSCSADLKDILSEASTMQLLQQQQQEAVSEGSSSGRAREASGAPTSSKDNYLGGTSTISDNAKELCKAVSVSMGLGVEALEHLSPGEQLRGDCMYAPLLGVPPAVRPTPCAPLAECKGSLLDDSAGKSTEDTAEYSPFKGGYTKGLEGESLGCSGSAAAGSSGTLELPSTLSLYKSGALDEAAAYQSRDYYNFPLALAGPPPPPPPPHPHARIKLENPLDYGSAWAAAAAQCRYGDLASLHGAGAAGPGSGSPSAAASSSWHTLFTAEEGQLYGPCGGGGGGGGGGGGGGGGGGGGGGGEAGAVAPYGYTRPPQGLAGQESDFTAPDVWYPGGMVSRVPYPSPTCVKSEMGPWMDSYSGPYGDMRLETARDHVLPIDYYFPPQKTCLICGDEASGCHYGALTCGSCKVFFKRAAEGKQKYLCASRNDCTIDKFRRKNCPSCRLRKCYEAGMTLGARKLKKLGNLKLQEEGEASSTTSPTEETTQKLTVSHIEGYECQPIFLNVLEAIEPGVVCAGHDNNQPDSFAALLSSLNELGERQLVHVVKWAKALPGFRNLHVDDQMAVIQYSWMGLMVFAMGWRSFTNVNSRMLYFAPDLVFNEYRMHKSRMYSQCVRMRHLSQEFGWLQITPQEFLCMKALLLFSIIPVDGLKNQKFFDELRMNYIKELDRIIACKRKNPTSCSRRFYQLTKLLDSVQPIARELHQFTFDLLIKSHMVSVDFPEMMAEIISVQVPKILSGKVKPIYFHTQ

PC-3 = PC-3 (Ruiz et al. 1999)
[3] = tested on: nontumorigenic mammary cells
[4] = tested on: estrogen receptor-positive and estrogen receptor-negative breast cancer cell lines; conditions: inducing apoptosis in a concentration-dependent manner

Sequence of CB1 receptor (P21554 whole entry): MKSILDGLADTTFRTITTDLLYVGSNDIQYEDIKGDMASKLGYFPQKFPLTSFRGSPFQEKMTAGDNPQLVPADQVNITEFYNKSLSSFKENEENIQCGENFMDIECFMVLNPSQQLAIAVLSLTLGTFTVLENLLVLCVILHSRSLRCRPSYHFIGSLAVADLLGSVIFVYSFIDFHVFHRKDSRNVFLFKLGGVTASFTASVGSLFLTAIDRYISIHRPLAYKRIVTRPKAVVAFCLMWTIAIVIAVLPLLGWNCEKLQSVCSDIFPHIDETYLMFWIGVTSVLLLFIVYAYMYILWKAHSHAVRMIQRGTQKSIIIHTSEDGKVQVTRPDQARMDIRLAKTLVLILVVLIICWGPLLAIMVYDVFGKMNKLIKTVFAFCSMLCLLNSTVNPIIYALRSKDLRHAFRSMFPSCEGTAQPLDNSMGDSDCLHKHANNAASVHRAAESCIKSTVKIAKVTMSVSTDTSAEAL

In the case of `CCCc1cc(O)c2c(c1)OC(C)(C)[C@@H]1CCC(C)=C[C@@H]21` [THCV, Tetrahydrocannabivarin], the “activity at CB1 receptor” value (CB1 receptor) is given as “CB1 receptor antagonist”.
In the case of vitamin E, the “reduction in breast cancer incidence” value (pre-menopausal women with a family history of breast cancer, highest quantity of vitamin E consumed) is given as 43% and the “breast cancer risk reduction” value (women without a family history of breast cancer) is given as 16%.
For `CCCCCc1cc(O)c2c(c1)OC(C)(C)[C@@H]1CCC(C)=C[C@@H]21` [THC, Tetrahydrocannabinol], the pain sensitivity ([1]; cold-pressor test after administration, dronabinol oral capsules 10 mg or 20 mg) is listed as “decreased pain sensitivity”, the duration of effect ([1]; dronabinol versus smoked marijuana) is listed as “lasted longer than smoked marijuana” and the “time until pain reduction effects were felt after administration” value ([1]; on the average) is listed as 180 min. The “specific binding of dihydroxytestosterone to the androgen receptor” value [2] was “inhibits specific binding” and the apoptosis (PC-3) was “causes apoptosis”.
For `C=C(C)[C@@H]1CCC(C)=C[C@H]1c1c(O)cc(CCCCC)cc1O` [CBD, Cannabidiol], the “effect on nontumorigenic mammary cells” value [3] is listed as “little effect”, the “survival of breast cancer cell lines” value [4] is listed as “inhibited the survival” and the “affinity to cannabinoid receptors” value (cannabinoid receptors) is listed as “low affinity”.
